For this assay, the system named is E. coli ATCC 11229. Nature of the assay: Determination of Minimum Biocidal Concentration (MBC), XTT reduction inhibition (Example 21). The format is cell-based. Particulars: for Minimum Biocidal Concentration (MBC): E. coli ATCC 11229, 1.35×10^6 CFU/mL, 10 minutes at room temperature, XTT, six-log kill; for replicate OD (450 nm): replicates 1-8. From the text:
The method described by J. Gabrielson, et al. (J. Microbiol. Methods 50: 63-73 (2002)) was employed for determination of the Minimum Biocidal Concentration (MBC) of peracids, or for determination of the MBC of hydrogen peroxide and enzyme substrates. The assay method is based on XTT reduction inhibition, where XTT ((2,3-bis[2-methoxy-4-nitro-5-sulfophenyl]-5-[(phenylamino)carbonyl]-2H-tetrazolium, inner salt, monosodium salt) is a redox dye that indicates microbial respiratory activity by a change in optical density (OD) measured at 490 nm or 450 nm. However, there are a variety of other methods available for testing the activity of disinfectants and antiseptics including, but not limited to viable plate counts, direct microscopic counts, dry weight, turbidity measurements, absorbance, and bioluminescence (see, for example Brock, Semour S., Disinfection, Sterilization, and Preservation, 5th edition, Lippincott Williams & Wilkins, Philadelphia, Pa., USA; 2001).
The filtered enzyme-generated product mixture was diluted 1:5 with sterile water, and the resulting solution was further diluted with sterile water in four 1:1 serial dilutions to obtain the concentrations of PAA and hydrogen peroxide listed in Table 22.
The 1:5 dilution and four serial dilutions were evaluated for biocidal activity by mixing 0.100 mL of the PAA-containing solution with 0.100 mL of an inoculum containing 2.7×10^6 CFU/mL of E. coli ATCC 11229 (American Type Culture Collection, Manassas, Va.) in Millers LB broth diluted with Butterfield Buffer; eight replicates of each mixture were contained in individual wells of a sterile 96-well microtiter plate. After the resulting cell suspensions were allowed to stand for 10 minutes at room temperature, they were tested for viability using the growth indicator XTT (2,3-bis[2-methoxy-4-nitro-5-sulfophenyl]-5-[(phenylamino)carbonyl]-2H-tetrazolium, inner salt, monosodium salt; CAS RN 111072-31-2) according to the method of Gabrielson et al. (J. Microbiol. Methods, 50:63-73 (2002)).
Separately, the cell inoculum was treated with sterile solutions of triacetin (Table 24) or hydrogen peroxide in 50 mM phosphate buffer (pH 6.5) (Table 25) at the concentrations present in each of the biocide dilutions in Table 23 to determine the MBC for these components of the biocide solution.
(Tetrazolium dyes change colour on reduction, which living cells bring about.)

Consider three compounds from patent publication US8063008B2, “Enzymatic production of peracids using perhydrolytic enzymes” (E. I. du Pont de Nemours and Company, priority 2005, dated 2011).

Each structure is given as a SMILES string. In brackets after ≈: the same amount, converted by molar mass. Several values for one entry are separate records, joined by “and”; a condition that tells them apart may be missing. Equal values may be shown once.

Turning to `CC(=O)OO` [Commercially-Available Peracetic Acid, peracetic acid, reference compound], the “Minimum Biocidal Concentration (MBC)” value (listed as commercial source of peracetic acid) was over 2.3 ppm. Besides, the “blank-corrected mean OD” value amounted to 1.138 (commercial PAA 1.15 ppm); 0.026 (commercial PAA 2.3 ppm); 0.027 (commercial PAA 4.7 ppm); 0.024 (commercial PAA 9.4 ppm); 0.024 (commercial PAA 18.75 ppm). Also, the “mean replicate OD (450 nm)” value runs as follows: (commercial PAA 1.15 ppm) 1.410; (commercial PAA 2.3 ppm) 0.298; (commercial PAA 4.7 ppm) 0.298; (commercial PAA 9.4 ppm) 0.295; (commercial PAA 18.75 ppm) 0.295. In addition, the “replicate OD (450 nm)” value by setting is: (commercial PAA 1.15 ppm) 1.343 and 1.377 and 1.368 and 1.378 and 1.324 and 1.386 and 1.734 and 1.367; (commercial PAA 2.3 ppm) 0.292 (2×) and 0.291 and 0.294 and 0.303 (2×) and 0.318 and 0.288; (commercial PAA 4.7 ppm) 0.294 (2×) and 0.295 and 0.298 and 0.293 and 0.304 and 0.310 and 0.297; (commercial PAA 9.4 ppm) 0.290 and 0.294 (2×) and 0.291 and 0.299 and 0.295 and 0.301 and 0.296; (commercial PAA 18.75 ppm) 0.289 and 0.288 and 0.296 (2×) and 0.294 and 0.300 and 0.306 and 0.292.
`CC(=O)OO` [peracetic acid]: the “Minimum Biocidal Concentration (MBC)” value (listed as PAA) is listed as over 2.4 ppm. The MBC (Escherichia coli, ATCC11229, 10 min, read-out: Minimum Biocidal Concentration (MBC), E. coli ATCC 11229, 1.35×10^6 CFU/mL, 10 minutes at room temperature, XTT, six-log kill) is 2.4 µg/mL (≈ 31.6 µM). The “blank-corrected mean OD” value by setting is: (PAA 1.2 ppm, H2O2 40.2 ppm) 0.203; (PAA 2.4 ppm, H2O2 80.4 ppm) 0.007; (PAA 4.8 ppm, H2O2 160.8 ppm) −0.005; (PAA 9.6 ppm, H2O2 321.6 ppm) −0.009; (PAA 19.15 ppm, H2O2 643.1 ppm) −0.029. Moreover, the “mean replicate OD (450 nm)” value reads like this: (PAA 1.2 ppm, H2O2 40.2 ppm) 0.617; (PAA 2.4 ppm, H2O2 80.4 ppm) 0.421; (PAA 4.8 ppm, H2O2 160.8 ppm) 0.409; (PAA 9.6 ppm, H2O2 321.6 ppm) 0.405; (PAA 19.15 ppm, H2O2 643.1 ppm) 0.388. Moreover, the “replicate OD (450 nm)” value reads like this: (PAA 1.2 ppm, H2O2 40.2 ppm) 0.674 and 0.635 and 0.658 and 0.625 and 0.639 and 0.520 and 0.496 and 0.692; (PAA 2.4 ppm, H2O2 80.4 ppm) 0.400 and 0.397 and 0.403 and 0.401 and 0.409 and 0.407 and 0.543 and 0.406; (PAA 4.8 ppm, H2O2 160.8 ppm) 0.393 and 0.388 and 0.399 and 0.398 and 0.404 and 0.401 and 0.471 and 0.418; (PAA 9.6 ppm, H2O2 321.6 ppm) 0.398 and 0.392 and 0.395 and 0.404 and 0.409 and 0.394 and 0.422 and 0.427; (PAA 19.15 ppm, H2O2 643.1 ppm) 0.383 and 0.379 and 0.387 and 0.381 and 0.382 (2×) and 0.403 (2×).
For the compound `CC(=O)OCC(COC(C)=O)OC(C)=O` [triacetin], the biocidal effect entry (highest concentration examined (5455 ppm)) was “no biocidal effect”. The “blank-corrected mean OD” value runs as follows: (triacetin 341 ppm) 2.156; (triacetin 682 ppm) 1.956; (triacetin 1364 ppm) 1.978; (triacetin 2728 ppm) 1.913; (triacetin 5455 ppm) 1.835. Also, the “mean replicate OD (450 nm)” value runs as follows: (triacetin 341 ppm) 2.571; (triacetin 682 ppm) 2.371; (triacetin 1364 ppm) 2.393; (triacetin 2728 ppm) 2.328; (triacetin 5455 ppm) 2.250. The “replicate OD (450 nm)” value is 2.568 and 2.563 and 2.601 and 2.58 and 3.148 and 2.408 and 2.507 and 2.189 (triacetin 341 ppm); 2.304 and 2.310 and 2.560 and 2.601 and 2.605 and 2.213 and 2.156 and 2.218 (triacetin 682 ppm); 2.140 and 2.266 and 2.485 and 2.632 and 2.823 and 2.337 and 2.265 and 2.198 (triacetin 1364 ppm); 2.273 and 2.167 and 2.358 and 2.454 and 2.663 and 2.280 and 2.208 and 2.222 (triacetin 2728 ppm); 2.229 and 2.124 and 2.263 and 2.407 and 2.539 and 2.210 and 2.136 and 2.091 (triacetin 5455 ppm).
